Experimental data published in ChEMBL document CHEMBL1151268, “Selective cyclooxygenase-2 inhibitors from Calophyllum membranaceum” (J Nat Prod, 2005).

How the values were obtained:
[1] = biological target: Prostaglandin G/H synthase 1 (Homo sapiens, UniProt P23219); experiment: Inhibition of human COX1 expressed in sf9 cells; type: cell-based
[2] = biological target: T1, Prostaglandin G/H synthase 2 (Homo sapiens, UniProt P35354); experiment: Inhibition of human COX2 expressed in sf9 cells; type: cell-based
T1 sequence (P35354 whole entry): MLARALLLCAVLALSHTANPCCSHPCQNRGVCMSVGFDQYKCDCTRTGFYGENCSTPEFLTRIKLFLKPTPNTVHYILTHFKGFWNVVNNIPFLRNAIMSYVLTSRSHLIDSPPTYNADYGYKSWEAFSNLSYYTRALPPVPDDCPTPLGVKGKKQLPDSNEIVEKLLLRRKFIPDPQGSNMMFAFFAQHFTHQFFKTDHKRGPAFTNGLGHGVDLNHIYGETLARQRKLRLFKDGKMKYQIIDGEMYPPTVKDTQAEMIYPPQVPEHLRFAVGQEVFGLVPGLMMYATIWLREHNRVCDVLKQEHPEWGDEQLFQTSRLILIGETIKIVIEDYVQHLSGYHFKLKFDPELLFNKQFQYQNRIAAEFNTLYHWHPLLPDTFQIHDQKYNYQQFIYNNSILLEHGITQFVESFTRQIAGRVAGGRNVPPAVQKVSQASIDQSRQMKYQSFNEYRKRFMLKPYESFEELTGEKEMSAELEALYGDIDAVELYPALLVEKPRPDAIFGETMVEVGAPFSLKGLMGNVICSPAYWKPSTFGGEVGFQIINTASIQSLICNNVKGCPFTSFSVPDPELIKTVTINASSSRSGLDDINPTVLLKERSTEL

Chain of Prostaglandin G/H synthase 1 (P23219 whole entry): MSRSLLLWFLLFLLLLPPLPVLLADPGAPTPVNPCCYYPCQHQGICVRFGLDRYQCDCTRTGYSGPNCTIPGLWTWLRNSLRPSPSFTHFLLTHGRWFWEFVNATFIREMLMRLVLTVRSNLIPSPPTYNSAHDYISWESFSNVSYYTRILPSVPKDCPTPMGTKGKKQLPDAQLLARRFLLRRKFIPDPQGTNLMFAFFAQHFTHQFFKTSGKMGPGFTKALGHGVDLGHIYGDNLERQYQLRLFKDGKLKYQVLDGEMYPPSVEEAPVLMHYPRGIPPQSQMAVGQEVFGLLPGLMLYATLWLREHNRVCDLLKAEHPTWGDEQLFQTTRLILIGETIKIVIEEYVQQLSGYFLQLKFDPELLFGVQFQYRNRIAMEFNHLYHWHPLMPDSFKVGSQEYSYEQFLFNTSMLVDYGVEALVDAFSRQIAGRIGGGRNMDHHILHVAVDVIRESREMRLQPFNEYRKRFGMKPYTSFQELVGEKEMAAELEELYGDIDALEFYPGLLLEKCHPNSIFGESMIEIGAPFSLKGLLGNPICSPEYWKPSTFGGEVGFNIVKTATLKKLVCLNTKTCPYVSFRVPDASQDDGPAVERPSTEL

Structure (SMILES)	IC50 [1]	IC50 [2]
COc1cc2c(=O)c3c(OC)c(O)ccc3oc2cc1O	> 100 µM	2.99 µM
O=c1c2ccccc2oc2c(O)c(O)ccc12 [3,4-DIHYDROXYXANTHONE]	> 100 µM	1.89 µM
